Experimental data as given in patent publication US20260158011A1 (Achieve Life Sciences, Inc., priority 2023, published 2026).
Like-named read-outs stand apart in the source and are kept apart here.

Test system: adults who smoked 10 cigarettes per day
Conditions: for Biochemically confirmed continuous smoking abstinence Weeks 3-6, % / Biochemically confirmed continuous smoking abstinence Weeks 9-12, %: primary outcome; for Biochemically confirmed continuous smoking abstinence Weeks 6-24, % / Biochemically confirmed continuous smoking abstinence Weeks 12-24, %: secondary outcome; for Relapse-free abstinence from week 6 to 24: intent-to-treat
Experimental: The trial was conducted at 17 U.S. sites. Adults aged 18 years were eligible if they currently smoked 10 cigarettes per day, had expired air carbon monoxide (CO) ≥10 ppm, and intended to quit smoking. Individuals were excluded if they used any non-cigarette tobacco product (pipe tobacco, cigars, smokeless tobacco, hookah), electronic cigarettes, smoking cessation medication (bupropion, varenicline, nortriptyline, nicotine replacement product), or marijuana (smoked or vaped) in the 28 days before randomization or planned to use them during the study. Other exclusion criteria included uncontrolled hypertension, hepatic or renal impairment, past 3-month history of acute myocardial infarction, unstable angina, cerebrovascular incident, or hospitalization for congestive heart failure, diagnosis of schizophrenia or bipolar disorder, current psychosis, suicidal ideation or suicide risk (Columbia Suicide Severity Rating Scale), (1) moderate to severe depression symptoms (Hospital Anxiety and Depression Scale score ≥11), (2) or a positive urinary screen for illicit drugs. (Full criteria in Trial Protocol).
At a screening visit, individuals provided written informed consent, completed a medical history, brief physical examination, electrocardiogram and laboratory tests, agreed to a quit date 5 to 7 days after study drug initiation, and recorded the number of cigarettes smoked daily for 7 days. At a second visit, participants who met inclusion and exclusion criteria were randomly assigned to study arm, received brief smoking cessation counseling, set their quit date within 5 to 7 days and started study medication the next day. A predetermined central computer-generated randomization sequence was used to assign participants (1:1:1) stratified by study site to receive placebo TID for 12 weeks (Arm A), 3 mg cytisinicline TID for 6 weeks followed by placebo TID for 6 weeks (Arm B), or 3 mg cytisinicline TID for 12 weeks (Arm C).
Study medication was identical-appearing tablets, containing 3 mg cytisinicline or placebo taken orally TID for 12 weeks. Participants were followed for 12 additional weeks after treatment ended. All participants received 10 minutes of brief smoking cessation behavioral support provided by trained counselors at each visit from randomization through week 24.
Assessments after randomization were conducted at in-person visits on day 2, weekly from 1 to 12 weeks, and at weeks 16, 20, and 24. Participants who discontinued study drug prematurely were encouraged to remain in the study and complete all assessment visits. Smoking status was assessed by self-report of cigarette abstinence since the last visit, measured weekly from weeks 2 through 12. Self-reported abstinence at weeks 16, 20, and 24 used the Russell criteria of not smoking more than 5 cigarettes since the last visit (3). A breath carbon monoxide (CO) level was measured at each visit. Verified abstinence required self-reported nonsmoking and a breath carbon monoxide (CO) <10 ppm. Participants not meeting these criteria or with missing data were classified as smoking.
The study had two primary endpoints. […] Study success was defined as either primary endpoint meeting statistical criterion. The secondary outcome measures were verified continuous cigarette abstinence to week 24 (weeks 3 to 24 for Arms B vs. A; weeks 9 to 24 for Arms C vs. A). A third secondary outcome measure compared the risk of relapse to smoking between weeks 6 and 24 among participants assigned to cytisinicline who achieved abstinence by week 6; these individuals were either switched to placebo at week 6 (Arm B) or continued cytisinicline to week 12 (Arm C). Other pre-specified endpoints included comparing the difference between arms in verified 7-day point-prevalence abstinence at each visit from week 2 through week 24 and assessing for evidence of effect modification for subsets defined by baseline attributes.

[1] = Arm B Cytisinicline 6 weeks, N = 269
[2] = Arm C Cytisinicline 12 weeks, N = 270

O=c1cccc2n1C[C@@H]1CNC[C@H]2C1 [cytisine, (−)-Cytisine]
OR for relapse-free abstinence week 6 to 24, Arm B vs Arm C (12-week versus 6-week cytisinicline): 1.31
Biochemically confirmed continuous smoking abstinence Weeks 3-6, % [1]: 25.3%
Biochemically confirmed continuous smoking abstinence Weeks 9-12, % [1]: 22.3%
Biochemically confirmed continuous smoking abstinence Weeks 6-24, % [1]: 8.9%
Biochemically confirmed continuous smoking abstinence Weeks 12-24, % [1]: 13.8%
OR versus placebo, continuous abstinence weeks 3 to 24 (Arm B vs. A): 3.7
OR versus placebo, continuous abstinence weeks 3 to 6 (Arm B vs. A (6-week treatment)): 8.0
Risk Difference, continuous smoking abstinence Weeks 6-24 (Arm B vs. Arm A, Cytisinicline-6 weeks vs. placebo, 95% CI 0.03, 0.09): 0.06
Risk Difference, continuous smoking abstinence Weeks 12-24 (Arm B vs. Arm A, Cytisinicline-6 weeks vs. placebo, 95% CI 0.04, 0.13): 0.09
Risk Difference, continuous smoking abstinence Weeks 9-12 (Arm B vs. Arm A, Cytisinicline-6 weeks vs. placebo, 95% CI 0.10, 0.20): 0.15
Risk Difference, continuous smoking abstinence Weeks 3-6 (Arm B vs. Arm A, Cytisinicline-6 weeks vs. placebo, 95% CI 0.16, 0.25): 0.21
Relative Risk, continuous smoking abstinence Weeks 6-24 (Arm B vs. Arm A, Cytisinicline-6 weeks vs. placebo, 95% CI 1.56, 8.50): 3.45
Relative Risk, continuous smoking abstinence Weeks 12-24 (Arm B vs. Arm A, Cytisinicline-6 weeks vs. placebo, 95% CI 1.59, 5.46): 2.87
Relative Risk, continuous smoking abstinence Weeks 9-12 (Arm B vs. Arm A, Cytisinicline-6 weeks vs. placebo, 95% CI 1.98, 5.30): 3.18
Relative Risk, continuous smoking abstinence Weeks 3-6 (Arm B vs. Arm A, Cytisinicline-6 weeks vs. placebo, 95% CI 3.26, 10.74): 5.71
NNT (number needed to treat), continuous smoking abstinence Weeks 3-6 (Arm B vs. Arm A, Cytisinicline-6 weeks vs. placebo, 95% CI 4, 7): 5
NNT (number needed to treat), continuous smoking abstinence Weeks 9-12 (Arm B vs. Arm A, Cytisinicline-6 weeks vs. placebo, 95% CI 4, 11): 7
NNT (number needed to treat), continuous smoking abstinence Weeks 12-24 (Arm B vs. Arm A, Cytisinicline-6 weeks vs. placebo, 95% CI 7, 24): 11
NNT (number needed to treat), continuous smoking abstinence Weeks 6-24 (Arm B vs. Arm A, Cytisinicline-6 weeks vs. placebo, 95% CI 10, 40): 16
Biochemically-confirmed continuous smoking abstinence, weeks 3 to 6 (Arm B: 3 mg cytisinicline TID 6 weeks then placebo 6 weeks): 25.3%
Continuous abstinence weeks 3 to 24 (Arm B: 6-week cytisinicline treatment): 8.9%
Relapse-free abstinence from week 6 to 24 (Arm B: switched to placebo at week 6): 10.4%
Biochemically confirmed continuous smoking abstinence Weeks 3-6, % [2]: 22.2%
Biochemically confirmed continuous smoking abstinence Weeks 9-12, % [2]: 32.6%
Biochemically confirmed continuous smoking abstinence Weeks 6-24, % [2]: 11.9%
Biochemically confirmed continuous smoking abstinence Weeks 12-24, % [2]: 21.1%
OR versus placebo, continuous abstinence weeks 9 to 24 (Arm C vs. A): 5.3
OR versus placebo, continuous abstinence weeks 9 to 12 (Arm C vs. A (12-week treatment)): 6.3
Risk Difference, continuous smoking abstinence Weeks 6-24 (Arm C vs. Arm A, Cytisinicline-12 weeks vs. placebo, 95% CI 0.05, 0.12): 0.09
Risk Difference, continuous smoking abstinence Weeks 12-24 (Arm C vs. Arm A, Cytisinicline-12 weeks vs. placebo, 95% CI 0.11, 0.20): 0.16
Risk Difference, continuous smoking abstinence Weeks 3-6 (Arm C vs. Arm A, Cytisinicline-12 weeks vs. placebo, 95% CI 0.13, 0.22): 0.18
Risk Difference, continuous smoking abstinence Weeks 9-12 (Arm C vs. Arm A, Cytisinicline-12 weeks vs. placebo, 95% CI 0.20, 0.30): 0.26
Relative Risk, continuous smoking abstinence Weeks 6-24 (Arm C vs. Arm A, Cytisinicline-12 weeks vs. placebo, 95% CI 2.15, 11.05): 4.59
Relative Risk, continuous smoking abstinence Weeks 12-24 (Arm C vs. Arm A, Cytisinicline-12 weeks vs. placebo, 95% CI 2.53, 8.15): 4.40
Relative Risk, continuous smoking abstinence Weeks 3-6 (Arm C vs. Arm A, Cytisinicline-12 weeks vs. placebo, 95% CI 2.842, 9.50): 5.02
Relative Risk, continuous smoking abstinence Weeks 9-12 (Arm C vs. Arm A, Cytisinicline-12 weeks vs. placebo, 95% CI 2.98, 7.58): 4.65
NNT (number needed to treat), continuous smoking abstinence Weeks 9-12 (Arm C vs. Arm A, Cytisinicline-12 weeks vs. placebo, 95% CI 3, 6): 4
NNT (number needed to treat), continuous smoking abstinence Weeks 3-6 (Arm C vs. Arm A, Cytisinicline-12 weeks vs. placebo, 95% CI 4, 8): 6
NNT (number needed to treat), continuous smoking abstinence Weeks 12-24 (Arm C vs. Arm A, Cytisinicline-12 weeks vs. placebo, 95% CI 4, 9): 6
NNT (number needed to treat), continuous smoking abstinence Weeks 6-24 (Arm C vs. Arm A, Cytisinicline-12 weeks vs. placebo, 95% CI 8, 20): 11
Biochemically-confirmed continuous smoking abstinence, weeks 9 to 12 (Arm C: 3 mg cytisinicline TID 12 weeks): 32.6%
Continuous abstinence weeks 9 to 24 (Arm C: 12-week cytisinicline treatment): 21.1%
Relapse-free abstinence from week 6 to 24 (Arm C: continued cytisinicline to week 12): 13.3%
Odds Ratio Arm B vs. Arm A, continuous smoking abstinence Weeks 6-24 (Cytisinicline 6 wk vs. placebo, 95% CI 1.5 to 10.2, P .002): 3.7
Odds Ratio Arm B vs. Arm A, continuous smoking abstinence Weeks 3-6 (Cytisinicline 6 wk vs. placebo, 95% CI 3.9 to 16.3, P <.001): 8.0
Odds Ratio Arm C vs. Arm A, continuous smoking abstinence Weeks 12-24 (Cytisinicline 12 wk vs. placebo, 95% CI 2.8 to 11.1, P <.001): 5.3
Odds Ratio Arm C vs. Arm A, continuous smoking abstinence Weeks 9-12 (Cytisinicline 12 wk vs. placebo, 95% CI 3.7 to 11.6, P <.001): 6.3
Mean total cigarette craving score (QSU-brief) (baseline to week 6, cytisinicline for 6 or 12 weeks compared to placebo): declined more rapidly
